Test systems include CCRF-CEM leukemia; HCT-116 colon; M14 melanoma; NCI-H460 lung; OVCAR-5 ovarian; UO-31 renal; A498 renal; CAKI-1 renal; SF-295 CNS; SF-539 CNS.
What all share (test): inhibition of tumour cell growth, NCI panel, 48 h

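Growth conditions: 96-well plates. Treatment: test compound, 48 hours, 5 concentrations. Analysis: linear interpolation between bracketing concentrations; unreached endpoints set to highest concentration. At the GI50, growth is halved. TGI: total growth inhibition.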

With `COc1ccc(/C=C/c2cc(OC)c(OC(C)=O)c(OC)c2)cc1`, the TGI in the assay on CCRF-CEM leukemia is > 100 µM; with HCT-116 colon, > 100 µM; in the assay with M14 melanoma it was > 100 µM; in the assay on NCI-H460 lung, 60.4 µM; with OVCAR-5 ovarian it was 59 µM; in the assay on UO-31 renal, 49.3 µM.

Consider `O=C(CC1(O)C(=O)Nc2c(Cl)cc(Cl)cc21)c1ccccc1` (centres undefined), for which the TGI with A498 renal, in the assay on CAKI-1 renal, in the assay with HCT-116 colon, in the assay with M14 melanoma, in the assay with NCI-H460 lung and in the assay on OVCAR-5 ovarian was > 100 µM throughout. The TGI in the assay with SF-295 CNS, in the assay on SF-539 CNS and in the assay with UO-31 renal was > 100 µM throughout.

Regarding `COc1ccc(NC(=O)Oc2ccc3c(C)cc(=O)oc3c2)c(OC)c1` (tested in a mixture with another compound), the TGI with A498 renal is 86.1 µM; with CAKI-1 renal it was > 100 µM; in the assay with HCT-116 colon, > 100 µM; with M14 melanoma it was > 100 µM; with NCI-H460 lung, > 100 µM; in the assay on OVCAR-5 ovarian, > 100 µM. In addition, the TGI in the assay with SF-295 CNS, in the assay on SF-539 CNS and in the assay on UO-31 renal was > 100 µM each time.

For `CSc1cc([C@@H]2C[C@H]2c2ccc(Cl)cc2)on1`, the GI50 was 12.5 µM in the assay with CAKI-1 renal; 20.3 µM in the assay with CCRF-CEM leukemia; 17.4 µM in the assay on HCT-116 colon; 9.27 µM with M14 melanoma; 19 µM with NCI-H460 lung; 14500 nM in the assay with OVCAR-5 ovarian. The GI50 is 34.1 µM with SF-295 CNS and 21.6 µM in the assay with UO-31 renal. Moreover, the TGI in the assay on CAKI-1 renal was 35.7 µM; in the assay with CCRF-CEM leukemia it was 47.2 µM; in the assay with HCT-116 colon, 67.8 µM; in the assay with M14 melanoma, > 100 µM; in the assay on NCI-H460 lung, 43 µM; with OVCAR-5 ovarian it was 35.2 µM. Also, the values for the TGI in the assay with SF-295 CNS and in the assay on UO-31 renal were 69.2 µM and > 100 µM, respectively.

`CCC[CH2][Sn](=[O])[CH2]CCC`: the GI50 is > 35.1 µM in the assay with CAKI-1 renal; > 50 µM in the assay on CCRF-CEM leukemia; > 50 µM with HCT-116 colon; > 50 µM in the assay on M14 melanoma; > 50 µM in the assay on NCI-H460 lung; > 30300 nM with OVCAR-5 ovarian. Moreover, the GI50 in the assay on SF-295 CNS is > 50 µM; with SF-539 CNS it was > 50000 nM; in the assay on UO-31 renal, > 50 µM. The TGI in the assay with CAKI-1 renal, in the assay with CCRF-CEM leukemia, with HCT-116 colon, in the assay on M14 melanoma, in the assay on NCI-H460 lung and in the assay with OVCAR-5 ovarian was > 50 µM each time. Also, the TGI with SF-295 CNS, in the assay with SF-539 CNS and in the assay on UO-31 renal was > 50 µM each time.

Take `COc1cnc2c(c1)C(=O)c1c-2n(CCCN2CCCC2)c(=O)c2cc([N+](=O)[O-])ccc12`: the GI50 was < 0.01 µM in the assay with CAKI-1 renal; < 0.01 µM with CCRF-CEM leukemia; < 0.01 µM with HCT-116 colon; < 0.01 µM in the assay on M14 melanoma; < 0.01 µM in the assay with NCI-H460 lung; 163 nM in the assay with OVCAR-5 ovarian. The GI50 in the assay with SF-295 CNS is < 0.01 µM; in the assay with SF-539 CNS it was 30.8 nM; with UO-31 renal it was < 0.01 µM. The TGI in the assay with CAKI-1 renal is 1.46 µM; in the assay on CCRF-CEM leukemia it was 3.77 µM; with HCT-116 colon, 0.144 µM; in the assay on M14 melanoma it was 1.01 µM; in the assay with NCI-H460 lung it was 0.116 µM; in the assay on OVCAR-5 ovarian, 1.52 µM. For the same compound, the values for the TGI in the assay with SF-295 CNS, with SF-539 CNS and in the assay on UO-31 renal were 0.215 µM, 0.353 µM and 0.206 µM, respectively.

With `c1ccc(SC(Sc2ccccc2)=C2CCC2)cc1`, the TGI with A498 renal, in the assay with CAKI-1 renal, with CCRF-CEM leukemia, in the assay on HCT-116 colon, in the assay with M14 melanoma and with NCI-H460 lung was > 100 µM in each case. For the same compound, the TGI in the assay with SF-295 CNS, with SF-539 CNS and in the assay with UO-31 renal was > 100 µM throughout.

As to `O=C(O)/C=C/c1ccc(Oc2ccccc2C(=O)O)o1`, the TGI with CAKI-1 renal, in the assay on CCRF-CEM leukemia, in the assay on HCT-116 colon, with M14 melanoma, with SF-295 CNS and in the assay with SF-539 CNS was > 10 µM in each case.

As for `Cc1ccc(S(=O)(=O)ON2C(=O)c3cccc4cc([N+](=O)[O-])cc(c34)C2=O)cc1`, the TGI with CAKI-1 renal, in the assay with HCT-116 colon, with M14 melanoma, with NCI-H460 lung, in the assay on OVCAR-5 ovarian and in the assay on SF-295 CNS was > 100 µM each time. The TGI in the assay on UO-31 renal is > 100 µM.

With `CCCCCCCCCCCCSC(=S)c1c(C)[nH]n(-c2ccccc2)c1=O`, the TGI in the assay on A498 renal is > 50 µM; with CAKI-1 renal, > 50 µM; in the assay on CCRF-CEM leukemia, 23.2 µM; with M14 melanoma, > 50 µM; in the assay on OVCAR-5 ovarian, > 50 µM; in the assay with SF-295 CNS, 35.6 µM. In addition, the TGI in the assay with SF-539 CNS stood at 33.9 µM; in the assay on UO-31 renal, 38.9 µM.

For `COc1ccc2c(c1)c(-c1nc(-c3cn(C)c4ccncc34)cs1)cn2C`, the GI50 is 6.59 µM in the assay on A498 renal; 1.8 µM in the assay with CAKI-1 renal; 2.15 µM in the assay on CCRF-CEM leukemia; 1.7 µM with M14 melanoma; 1.94 µM with NCI-H460 lung; 1810 nM with OVCAR-5 ovarian. The GI50 was 1.66 µM in the assay with SF-295 CNS, 1770 nM in the assay on SF-539 CNS and 1.58 µM in the assay with UO-31 renal. Moreover, the TGI in the assay with A498 renal was 20.4 µM; in the assay on CAKI-1 renal, 3.26 µM; with CCRF-CEM leukemia, 6.05 µM; in the assay with M14 melanoma it was 3.29 µM; with NCI-H460 lung, 3.68 µM; in the assay with OVCAR-5 ovarian, 3.53 µM. The TGI with SF-295 CNS came to 3.16 µM; in the assay with SF-539 CNS, 3.25 µM; in the assay on UO-31 renal it was 3.17 µM.

As to `CC(=O)OCc1c(O)c2c([nH]c1=O)CCc1ccccc1-2`, the TGI is 130 µM in the assay with CAKI-1 renal; 297 µM with CCRF-CEM leukemia; 110 µM in the assay on HCT-116 colon; 283 µM in the assay with NCI-H460 lung; 274 µM in the assay with SF-295 CNS; 177 µM with SF-539 CNS.

Consider `Cc1ccc(/C=C/C(=O)c2ccc(Cl)c(Cl)c2)cc1`, for which the TGI with A498 renal, with CAKI-1 renal, in the assay with CCRF-CEM leukemia, in the assay with HCT-116 colon, in the assay with M14 melanoma and with NCI-H460 lung was > 100 µM throughout. The TGI in the assay with OVCAR-5 ovarian, with SF-295 CNS and in the assay on UO-31 renal was > 100 µM in each case.
